Consider two substances from paper PMC2900185 (Biochemistry, 2010).

The test system of test [1] is Ste2p containing the substitution R58A. Briefly: Binding of α-factor to Ste2p with substitution R58A. Details: species or system Saccharomyces cerevisiae.
For test [2], the target named is Ste2p (R58A) (S. cerevisiae) (UniProt D6VTK4).
Sequence of UniProt D6VTK4 (D6VTK4 whole entry R58A): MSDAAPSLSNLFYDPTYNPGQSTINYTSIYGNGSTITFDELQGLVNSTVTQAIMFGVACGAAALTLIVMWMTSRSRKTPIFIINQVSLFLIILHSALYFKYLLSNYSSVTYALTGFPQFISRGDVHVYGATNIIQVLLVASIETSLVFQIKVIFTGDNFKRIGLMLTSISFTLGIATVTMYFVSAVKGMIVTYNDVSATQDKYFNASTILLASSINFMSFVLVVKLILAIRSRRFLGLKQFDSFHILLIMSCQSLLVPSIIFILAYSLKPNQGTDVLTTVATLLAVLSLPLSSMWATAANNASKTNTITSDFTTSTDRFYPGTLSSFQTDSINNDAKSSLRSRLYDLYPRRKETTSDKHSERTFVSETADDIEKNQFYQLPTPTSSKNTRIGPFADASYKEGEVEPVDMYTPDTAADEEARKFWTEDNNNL

As for WHWLQLKPGQPMY [α-factor], the “fold lower affinity for α-factor relative to wild-type Ste2p” value in test [1] is recorded as ~10 fold.
In test [2], “α-factor (as used with the ste2 R58 mutants) (peptide)” yielded a fold higher Kd than wild-type Ste2p of 10 fold.
